Measurements: patent US10479786B2, “Protein kinase inhibitors” (Princeton Drug Discovery Inc, priority 2016, dated 2019)

What was measured:
FMS = molecular target: T1, FMS (Homo sapiens, UniProt P07333); assay: Off-chip Mobility Shift Assay, kinase inhibition; assay type: biochemical; conditions: at 10 nM; recombinant FMS
T1 construct: purchased Carna Biosciences, Inc

PIK3CA/PIK3R1 = molecular target: T2, PIK3CA/PIK3R1 (Homo sapiens, UniProt P42336); assay: Off-chip Mobility Shift Assay, kinase inhibition; assay type: biochemical; conditions: at 10 nM; recombinant PIK3CA/PIK3R1
T2 construct: purchased Carna Biosciences, Inc

BLK = molecular target: T3, BLK (Homo sapiens, UniProt P51451); assay: Off-chip Mobility Shift Assay, kinase inhibition; assay type: biochemical; conditions: at 10 nM; recombinant BLK
T3 construct: purchased Carna Biosciences, Inc

BTK = molecular target: T4, BTK (Homo sapiens, UniProt Q06187); assay: Off-chip Mobility Shift Assay, kinase inhibition; assay type: biochemical; conditions: recombinant BTK; for inhibition at 0.001 µM: at 1 nM; for inhibition at 0.01 µM: at 10 nM
T4 construct: purchased Carna Biosciences, Inc

SU-DHL-4 = assay: Cell inhibition assay (PrestoBlue, 48 h); assay type: cell-based; conditions: Homo sapiens, SU-DHL-4, 48 h, SU-DHL-4 diffuse large B-cell lymphoma cells, read-out: IC50, inhibition of growth
LYNa = molecular target: T5, LYNa (Homo sapiens, UniProt P07948); assay: Off-chip Mobility Shift Assay, kinase inhibition; assay type: biochemical; conditions: recombinant LYNa; for inhibition at 0.001 µM: at 1 nM; for inhibition at 0.01 µM: at 10 nM, read-out: inhibition
T5 construct: purchased Carna Biosciences, Inc

EPHA1 = molecular target: T6, EPHA1 (Homo sapiens, UniProt P21709); assay: Off-chip Mobility Shift Assay, kinase inhibition; assay type: biochemical; conditions: at 10 nM; recombinant EPHA1
T6 construct: purchased Carna Biosciences, Inc
T6 sequence (P21709 26-976): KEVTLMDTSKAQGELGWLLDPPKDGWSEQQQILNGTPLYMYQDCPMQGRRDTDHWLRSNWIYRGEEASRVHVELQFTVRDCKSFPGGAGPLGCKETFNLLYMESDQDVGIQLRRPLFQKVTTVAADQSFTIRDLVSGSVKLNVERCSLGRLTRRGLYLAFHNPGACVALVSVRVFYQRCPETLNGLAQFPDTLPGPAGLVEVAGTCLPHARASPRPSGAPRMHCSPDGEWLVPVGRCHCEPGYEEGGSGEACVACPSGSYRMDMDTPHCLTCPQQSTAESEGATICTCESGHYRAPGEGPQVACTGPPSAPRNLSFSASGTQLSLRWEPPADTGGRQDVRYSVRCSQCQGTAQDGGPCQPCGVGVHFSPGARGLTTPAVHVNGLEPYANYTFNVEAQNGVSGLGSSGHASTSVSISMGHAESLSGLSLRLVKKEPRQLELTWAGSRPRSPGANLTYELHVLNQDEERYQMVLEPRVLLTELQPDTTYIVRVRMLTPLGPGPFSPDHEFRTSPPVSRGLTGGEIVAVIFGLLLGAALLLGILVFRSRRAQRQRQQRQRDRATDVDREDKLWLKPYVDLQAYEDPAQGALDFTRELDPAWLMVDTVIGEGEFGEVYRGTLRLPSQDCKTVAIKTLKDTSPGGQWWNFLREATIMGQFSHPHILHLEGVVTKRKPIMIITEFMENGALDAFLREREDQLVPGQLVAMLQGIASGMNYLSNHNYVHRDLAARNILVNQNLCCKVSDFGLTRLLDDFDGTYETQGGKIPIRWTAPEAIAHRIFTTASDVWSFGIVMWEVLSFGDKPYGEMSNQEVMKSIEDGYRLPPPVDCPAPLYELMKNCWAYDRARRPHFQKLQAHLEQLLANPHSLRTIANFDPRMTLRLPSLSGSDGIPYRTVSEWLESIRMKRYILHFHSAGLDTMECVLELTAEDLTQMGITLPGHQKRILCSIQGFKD

HCK = molecular target: T7, HCK (Homo sapiens, UniProt P08631); assay: Off-chip Mobility Shift Assay, kinase inhibition; assay type: biochemical; conditions: recombinant HCK; for inhibition at 0.001 µM: at 1 nM; for inhibition at 0.01 µM: at 10 nM, read-out: inhibition
T7 construct: purchased Carna Biosciences, Inc

FYN(isoform a) = molecular target: T8, FYN(isoform a) (Homo sapiens, UniProt P06241); assay: Off-chip Mobility Shift Assay, kinase inhibition; assay type: biochemical; conditions: at 10 nM; recombinant FYN(isoform a)
T8 construct: purchased Carna Biosciences, Inc

PDGFRα = molecular target: T9, PDGFRα (Homo sapiens, UniProt P16234); assay: Off-chip Mobility Shift Assay, kinase inhibition; assay type: biochemical; conditions: at 10 nM; recombinant PDGFRα; read-out: inhibition
T9 construct: purchased Carna Biosciences, Inc

BMX = molecular target: T10, BMX (Homo sapiens, UniProt P51813); assay: Off-chip Mobility Shift Assay, kinase inhibition; assay type: biochemical; conditions: recombinant BMX; for inhibition at 0.001 µM: at 1 nM; for inhibition at 0.01 µM: at 10 nM
T10 construct: purchased Carna Biosciences, Inc
T10 sequence (P51813 1-675): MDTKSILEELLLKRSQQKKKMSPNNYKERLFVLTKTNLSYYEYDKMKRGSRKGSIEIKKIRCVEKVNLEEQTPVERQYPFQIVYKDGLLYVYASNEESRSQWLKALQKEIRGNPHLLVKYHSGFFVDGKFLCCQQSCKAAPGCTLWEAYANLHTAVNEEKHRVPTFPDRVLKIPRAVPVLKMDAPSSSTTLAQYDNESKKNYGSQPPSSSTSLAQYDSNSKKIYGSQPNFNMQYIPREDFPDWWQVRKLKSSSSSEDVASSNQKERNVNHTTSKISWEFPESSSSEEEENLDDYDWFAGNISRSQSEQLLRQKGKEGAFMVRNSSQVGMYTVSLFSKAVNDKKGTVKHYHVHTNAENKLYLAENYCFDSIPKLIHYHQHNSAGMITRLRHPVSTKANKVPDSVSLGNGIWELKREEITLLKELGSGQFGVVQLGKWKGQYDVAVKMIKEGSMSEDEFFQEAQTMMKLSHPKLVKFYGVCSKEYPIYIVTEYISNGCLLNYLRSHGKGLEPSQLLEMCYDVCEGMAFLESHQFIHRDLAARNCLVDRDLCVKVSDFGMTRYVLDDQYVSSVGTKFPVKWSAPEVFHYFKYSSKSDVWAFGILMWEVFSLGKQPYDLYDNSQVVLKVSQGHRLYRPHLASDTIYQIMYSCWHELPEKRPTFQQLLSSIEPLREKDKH

ACK = molecular target: T11, ACK (Homo sapiens, UniProt Q07912); assay: Off-chip Mobility Shift Assay, kinase inhibition; assay type: biochemical; conditions: at 10 nM; recombinant ACK
T11 construct: purchased Carna Biosciences, Inc

ABL = molecular target: T12, ABL (Homo sapiens, UniProt P00519); assay: Off-chip Mobility Shift Assay, kinase inhibition; assay type: biochemical; conditions: recombinant ABL; for inhibition at 0.001 µM: at 1 nM; for inhibition at 0.01 µM: at 10 nM
T12 construct: purchased Carna Biosciences, Inc

[1] = tested on: battery of selected protein kinases; assay: In vitro screen of a battery of selected protein kinases (summary statement); assay type: biochemical; conditions: BTK, BMX, ABL, ABL(E255K), SRC, ACK, ARG, BLK, DDR2, EPHA, FGR, FMS, FRK, FYN, HCK, LCK, LYN, PDGFRα, PDGFRβ, YES, PIK3CA/PIK3R1, among others
LCK = molecular target: T13, LCK (Homo sapiens, UniProt P06239); assay: Off-chip Mobility Shift Assay, kinase inhibition; assay type: biochemical; conditions: recombinant LCK; for inhibition at 0.001 µM: at 1 nM; for inhibition at 0.01 µM: at 10 nM
T13 construct: purchased Carna Biosciences, Inc

ARG = molecular target: T14, ARG (Homo sapiens, UniProt P42684); assay: Off-chip Mobility Shift Assay, kinase inhibition; assay type: biochemical; conditions: at 10 nM; recombinant ARG; read-out: inhibition
T14 construct: purchased Carna Biosciences, Inc
T14 sequence (P42684 whole entry): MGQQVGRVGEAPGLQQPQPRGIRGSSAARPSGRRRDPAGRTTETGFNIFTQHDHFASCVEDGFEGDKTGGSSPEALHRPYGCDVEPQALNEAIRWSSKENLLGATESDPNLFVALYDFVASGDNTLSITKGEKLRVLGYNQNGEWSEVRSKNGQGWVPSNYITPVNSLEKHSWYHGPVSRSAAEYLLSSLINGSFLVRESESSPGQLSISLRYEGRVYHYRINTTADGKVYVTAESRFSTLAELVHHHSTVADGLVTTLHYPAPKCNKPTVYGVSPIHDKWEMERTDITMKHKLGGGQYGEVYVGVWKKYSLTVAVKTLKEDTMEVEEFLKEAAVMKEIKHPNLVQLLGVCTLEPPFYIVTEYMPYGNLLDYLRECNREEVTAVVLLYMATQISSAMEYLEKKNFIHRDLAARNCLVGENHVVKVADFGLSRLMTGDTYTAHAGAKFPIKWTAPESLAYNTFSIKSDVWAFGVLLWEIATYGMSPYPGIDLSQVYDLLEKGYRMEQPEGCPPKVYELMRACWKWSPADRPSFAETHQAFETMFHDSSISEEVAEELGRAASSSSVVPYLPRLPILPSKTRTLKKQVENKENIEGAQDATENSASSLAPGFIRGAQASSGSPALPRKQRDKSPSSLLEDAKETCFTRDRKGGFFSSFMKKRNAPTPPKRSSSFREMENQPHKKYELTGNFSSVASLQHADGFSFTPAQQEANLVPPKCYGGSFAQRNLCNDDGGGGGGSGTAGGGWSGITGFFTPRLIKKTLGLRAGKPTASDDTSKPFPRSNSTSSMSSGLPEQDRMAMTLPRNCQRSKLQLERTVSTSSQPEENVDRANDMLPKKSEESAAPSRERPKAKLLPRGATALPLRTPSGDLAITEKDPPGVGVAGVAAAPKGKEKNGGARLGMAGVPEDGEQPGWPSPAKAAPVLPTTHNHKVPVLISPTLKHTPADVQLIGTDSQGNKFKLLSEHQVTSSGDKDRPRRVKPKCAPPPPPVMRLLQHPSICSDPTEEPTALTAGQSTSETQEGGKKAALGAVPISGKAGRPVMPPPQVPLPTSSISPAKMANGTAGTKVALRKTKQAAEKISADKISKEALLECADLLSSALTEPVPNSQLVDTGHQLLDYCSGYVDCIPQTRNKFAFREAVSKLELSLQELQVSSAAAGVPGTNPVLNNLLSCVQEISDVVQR

T9 sequence (P16234 24-1089): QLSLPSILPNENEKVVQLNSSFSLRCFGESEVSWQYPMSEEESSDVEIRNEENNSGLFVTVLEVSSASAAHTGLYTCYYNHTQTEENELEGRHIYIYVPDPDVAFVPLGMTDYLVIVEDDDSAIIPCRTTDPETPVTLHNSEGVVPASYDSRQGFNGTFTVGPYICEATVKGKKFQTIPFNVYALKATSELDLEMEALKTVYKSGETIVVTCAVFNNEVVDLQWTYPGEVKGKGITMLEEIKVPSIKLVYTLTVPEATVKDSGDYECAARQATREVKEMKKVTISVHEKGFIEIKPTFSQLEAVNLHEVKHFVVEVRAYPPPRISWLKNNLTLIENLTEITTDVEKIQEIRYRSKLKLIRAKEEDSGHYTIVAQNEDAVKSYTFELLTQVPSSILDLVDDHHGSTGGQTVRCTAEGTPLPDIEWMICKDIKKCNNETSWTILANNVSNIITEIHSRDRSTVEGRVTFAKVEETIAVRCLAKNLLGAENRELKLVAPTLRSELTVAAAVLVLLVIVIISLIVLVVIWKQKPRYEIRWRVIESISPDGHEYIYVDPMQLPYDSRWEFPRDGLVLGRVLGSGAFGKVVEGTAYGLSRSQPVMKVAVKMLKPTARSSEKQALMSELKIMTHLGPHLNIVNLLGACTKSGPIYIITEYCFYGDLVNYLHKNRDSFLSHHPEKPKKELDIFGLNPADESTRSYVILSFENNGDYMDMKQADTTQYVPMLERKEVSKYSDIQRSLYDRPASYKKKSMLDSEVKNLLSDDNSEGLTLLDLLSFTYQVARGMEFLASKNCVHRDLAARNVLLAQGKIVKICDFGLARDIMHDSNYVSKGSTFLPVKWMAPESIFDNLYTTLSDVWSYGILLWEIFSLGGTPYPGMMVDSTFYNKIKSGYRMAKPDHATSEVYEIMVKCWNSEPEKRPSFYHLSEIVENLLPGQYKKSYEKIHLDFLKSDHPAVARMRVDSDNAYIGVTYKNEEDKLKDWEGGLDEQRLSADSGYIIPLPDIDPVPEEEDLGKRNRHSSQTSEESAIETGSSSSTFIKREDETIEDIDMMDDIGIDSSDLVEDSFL
T2 sequence (P42336 whole entry): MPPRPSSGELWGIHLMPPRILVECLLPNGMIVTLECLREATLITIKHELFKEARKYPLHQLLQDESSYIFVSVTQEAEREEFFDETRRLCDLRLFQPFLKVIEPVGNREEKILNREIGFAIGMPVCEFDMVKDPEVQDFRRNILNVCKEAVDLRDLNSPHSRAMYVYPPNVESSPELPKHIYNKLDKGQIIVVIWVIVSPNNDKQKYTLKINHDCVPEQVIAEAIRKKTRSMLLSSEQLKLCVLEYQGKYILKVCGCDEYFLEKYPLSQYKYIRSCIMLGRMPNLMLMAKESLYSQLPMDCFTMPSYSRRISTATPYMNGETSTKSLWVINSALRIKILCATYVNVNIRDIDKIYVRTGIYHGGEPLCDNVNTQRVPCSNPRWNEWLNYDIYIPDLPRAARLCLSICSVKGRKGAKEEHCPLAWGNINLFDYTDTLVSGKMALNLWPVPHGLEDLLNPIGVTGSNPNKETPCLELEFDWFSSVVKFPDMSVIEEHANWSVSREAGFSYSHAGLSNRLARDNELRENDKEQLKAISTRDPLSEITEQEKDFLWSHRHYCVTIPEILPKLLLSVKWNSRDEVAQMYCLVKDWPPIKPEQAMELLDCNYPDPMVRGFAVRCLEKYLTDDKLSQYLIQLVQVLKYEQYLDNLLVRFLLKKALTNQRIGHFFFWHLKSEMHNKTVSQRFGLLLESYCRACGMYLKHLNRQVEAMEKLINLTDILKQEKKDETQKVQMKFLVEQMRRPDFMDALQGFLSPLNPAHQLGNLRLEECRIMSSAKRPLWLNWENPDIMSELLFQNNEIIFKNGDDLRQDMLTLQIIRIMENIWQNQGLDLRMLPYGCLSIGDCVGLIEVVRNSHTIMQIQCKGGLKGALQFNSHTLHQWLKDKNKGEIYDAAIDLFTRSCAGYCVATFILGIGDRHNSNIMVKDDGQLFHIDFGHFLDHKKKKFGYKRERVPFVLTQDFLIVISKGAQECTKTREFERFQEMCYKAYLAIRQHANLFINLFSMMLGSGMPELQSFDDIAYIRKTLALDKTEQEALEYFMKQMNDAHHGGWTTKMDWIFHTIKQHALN
T2 sequence (P27986 whole entry partner): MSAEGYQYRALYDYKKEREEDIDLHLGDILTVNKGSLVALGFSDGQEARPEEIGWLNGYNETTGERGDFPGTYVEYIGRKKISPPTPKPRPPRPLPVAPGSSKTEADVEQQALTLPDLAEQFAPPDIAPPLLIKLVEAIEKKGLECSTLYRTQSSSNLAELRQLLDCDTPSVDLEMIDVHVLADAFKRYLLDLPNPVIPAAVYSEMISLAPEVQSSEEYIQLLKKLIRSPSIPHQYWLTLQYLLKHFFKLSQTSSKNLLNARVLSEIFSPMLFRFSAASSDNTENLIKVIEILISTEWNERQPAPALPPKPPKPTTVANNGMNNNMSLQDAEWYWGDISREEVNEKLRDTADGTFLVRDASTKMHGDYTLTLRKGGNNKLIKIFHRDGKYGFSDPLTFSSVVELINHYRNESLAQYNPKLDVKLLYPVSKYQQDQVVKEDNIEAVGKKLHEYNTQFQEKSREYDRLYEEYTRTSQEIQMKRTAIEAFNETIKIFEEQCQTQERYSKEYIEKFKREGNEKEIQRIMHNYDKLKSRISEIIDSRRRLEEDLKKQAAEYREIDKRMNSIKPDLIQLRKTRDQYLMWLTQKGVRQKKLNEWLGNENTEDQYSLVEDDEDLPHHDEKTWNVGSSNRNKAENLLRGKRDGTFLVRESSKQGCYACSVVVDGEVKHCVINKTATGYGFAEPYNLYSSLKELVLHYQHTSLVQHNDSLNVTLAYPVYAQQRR
T13 sequence (P06239 whole entry): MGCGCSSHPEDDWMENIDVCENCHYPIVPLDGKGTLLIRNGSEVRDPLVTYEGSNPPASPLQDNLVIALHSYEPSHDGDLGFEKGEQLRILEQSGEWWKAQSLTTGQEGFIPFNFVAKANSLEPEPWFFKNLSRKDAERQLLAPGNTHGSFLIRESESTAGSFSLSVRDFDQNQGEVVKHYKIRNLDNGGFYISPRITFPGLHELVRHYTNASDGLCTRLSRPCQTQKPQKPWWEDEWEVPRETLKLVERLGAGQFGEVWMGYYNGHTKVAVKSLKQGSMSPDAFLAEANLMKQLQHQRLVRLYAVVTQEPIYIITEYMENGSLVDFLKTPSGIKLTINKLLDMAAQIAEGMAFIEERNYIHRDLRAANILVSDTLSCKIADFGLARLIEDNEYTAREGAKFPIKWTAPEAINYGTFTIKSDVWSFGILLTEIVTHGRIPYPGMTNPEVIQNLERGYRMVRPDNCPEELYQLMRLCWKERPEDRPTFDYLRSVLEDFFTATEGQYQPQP
T7 sequence (P08631 whole entry): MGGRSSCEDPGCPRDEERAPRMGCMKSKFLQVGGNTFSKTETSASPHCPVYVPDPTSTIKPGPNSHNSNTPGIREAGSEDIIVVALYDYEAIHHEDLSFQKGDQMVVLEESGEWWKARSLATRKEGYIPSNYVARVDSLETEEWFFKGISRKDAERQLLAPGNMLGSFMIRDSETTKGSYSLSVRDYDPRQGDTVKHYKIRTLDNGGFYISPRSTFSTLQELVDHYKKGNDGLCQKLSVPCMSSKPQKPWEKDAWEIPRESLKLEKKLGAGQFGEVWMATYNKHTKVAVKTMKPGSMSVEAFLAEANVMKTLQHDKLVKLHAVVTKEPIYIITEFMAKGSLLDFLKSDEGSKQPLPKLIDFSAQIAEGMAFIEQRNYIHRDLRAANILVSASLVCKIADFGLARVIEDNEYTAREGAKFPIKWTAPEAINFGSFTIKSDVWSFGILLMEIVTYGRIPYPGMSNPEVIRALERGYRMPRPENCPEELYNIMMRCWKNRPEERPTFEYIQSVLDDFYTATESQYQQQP

| inhibition at 0.01 µM (FMS) [%] | inhibition at 0.01 µM (PIK3CA/PIK3R1) [%] | inhibition at 0.01 µM (BLK) [%] | inhibition at 0.001 µM (BTK) [%] | inhibition at 0.01 µM (BTK) [%] | IC50 (SU-DHL-4) [nM] | inhibition at 0.001 µM (LYNa) [%] | inhibition at 0.01 µM (LYNa) [%] | inhibition at 0.01 µM (EPHA1) [%] | inhibition at 0.001 µM (HCK) [%] | inhibition at 0.01 µM (HCK) [%] | inhibition at 0.01 µM (FYN(isoform a)) [%] | inhibition at 0.01 µM (PDGFRα) [%] | inhibition at 0.001 µM (BMX) [%] | inhibition at 0.01 µM (BMX) [%] | inhibition at 0.01 µM (ACK) [%] | inhibition at 0.001 µM (ABL) [%] | inhibition at 0.01 µM (ABL) [%] | inhibition at 0.001 µM (LCK) [%] | Structure (SMILES) | activity to inhibit kinases [1] | also measured |
| --- | --- | --- | --- | --- | --- | --- | --- | --- | --- | --- | --- | --- | --- | --- | --- | --- | --- | --- | --- | --- | --- |
| > 50 | > 50 | > 50 | > 50 | > 50 | < 20 | > 50 | > 50 | > 50 | > 50 | > 50 | > 50 | > 50 | > 50 | > 50 | > 50 | > 50 | > 50 | > 50 | [2H]c1cc(C)c(NC(=O)c2cnc(Nc3cc(N4CC[C@H](O)C4)nc(C)n3)s2)c(Cl)c1 [Compound IV, N-(2-chloro-4-deutero-6-methylphenyl)-2-[[2-methyl-6-((S)-3-hydroxypyrrolidin-1-yl)pyrimidin-4-yl]amino]thiazole-5-carboxamide] | potent activity | inhibition at 0.01 µM (LCK): > 50%; inhibition at 0.01 µM (ARG): > 50% |
| > 50 | > 50 | > 50 | > 50 | > 50 | < 20 | > 50 | > 50 | > 50 | > 50 | > 50 | > 50 | > 50 | > 50 | > 50 | > 50 | > 50 | > 50 | > 50 | Cc1nc(Nc2ncc(C(=O)Nc3c(C)cccc3Cl)s2)cc(N2CC[C@H](N)C2)n1 [Compound XII, N-(2-chloro-6-methylphenyl)-2-[[2-methyl-6-((S)-3-aminopyrrolidin-1-yl)pyrimidin-4-yl]amino]thiazole-5-carboxamide] | potent activity | inhibition at 0.01 µM (LCK): > 50%; inhibition at 0.01 µM (ARG): > 50% |
| > 50 | > 50 | > 50 | > 50 | > 50 | < 20 | > 50 | > 50 | > 50 | > 50 | > 50 | > 50 | > 50 | > 50 | > 50 | > 50 | > 50 | > 50 | > 50 | [2H]c1cc(C)c(NC(=O)c2cnc(Nc3cc(N4CC[C@@H](O)C4)nc(C)n3)s2)c(Cl)c1 [Compound V, N-(2-chloro-4-deutero-6-methylphenyl)-2-[[2-methyl-6-((R)-3-hydroxypyrrolidin-1-yl)pyrimidin-4-yl]amino]thiazole-5-carboxamide] | potent activity | inhibition at 0.01 µM (LCK): > 50%; inhibition at 0.01 µM (ARG): > 50% |
